Measured values reported in US20250177412A1, “SMALL-MOLECULE INHIBITORS TARGETING THE BOB1/OCT1 INTERFACE” (NANTES UNIVERSITE, priority 2022, published 2025).
pKd: −log10 of the molar value.

What was measured:
NIH3T3 cells = test: MTT assay; assay type: cell-based; conditions: data not shown
[1] = molecular target: T1, POU domain of OCT1 (POU1) (Homo sapiens, UniProt P14859); test: Kd measurement (fluorescence emission spectra, Hill's coordinates); assay type: binding; conditions: 298.15 K
T1 construct: 6xHis (pET28 N-terminal histidine tag) (N); made in house; host or cells: E. coli BL21
T1 sequence (P14859 280-438): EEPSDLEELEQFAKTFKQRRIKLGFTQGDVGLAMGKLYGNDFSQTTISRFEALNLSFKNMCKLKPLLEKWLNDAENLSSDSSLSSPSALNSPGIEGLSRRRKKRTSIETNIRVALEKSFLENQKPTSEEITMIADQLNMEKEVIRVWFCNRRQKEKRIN

Compound: Cc1ccc(NC(=O)C2CN(c3nc(NCCCc4ccc(F)cc4)nc(NCCC(=O)O)n3)c3ccccc3O2)cc1Cl (stereo not drawn) [compound 005, 3-((4-(2-((3-chloro-4-methylphenyl)carbamoyl)-2,3-dihydro-4H-benzo[b][1,4]oxazin-4-yl)-6-((3-(4-fluorophenyl)propyl)amino)-1,3,5-triazin-2-yl)amino)propanoic acid]
- concentration showing toxicity (NIH3T3 cells): ≥ 80 µM
- pKd ([1]; POU1 3 μM): 9.00
- ΔG (change of Gibb's energy) of binding ([1]; calculated from Kb): negative value
